Molecular target: Protein disulfide-isomerase (Homo sapiens) (UniProt P07237)
Test: PDI inhibitors, insulin turbidity readout, confirmation, biochemical, dry powder samples, set 2 (AID 652146)
Conditions: PDI insulin reduction turbidity, plate reader

Protein disulfide-isomerase (Homo sapiens), sequence (P07237 whole entry, looked up): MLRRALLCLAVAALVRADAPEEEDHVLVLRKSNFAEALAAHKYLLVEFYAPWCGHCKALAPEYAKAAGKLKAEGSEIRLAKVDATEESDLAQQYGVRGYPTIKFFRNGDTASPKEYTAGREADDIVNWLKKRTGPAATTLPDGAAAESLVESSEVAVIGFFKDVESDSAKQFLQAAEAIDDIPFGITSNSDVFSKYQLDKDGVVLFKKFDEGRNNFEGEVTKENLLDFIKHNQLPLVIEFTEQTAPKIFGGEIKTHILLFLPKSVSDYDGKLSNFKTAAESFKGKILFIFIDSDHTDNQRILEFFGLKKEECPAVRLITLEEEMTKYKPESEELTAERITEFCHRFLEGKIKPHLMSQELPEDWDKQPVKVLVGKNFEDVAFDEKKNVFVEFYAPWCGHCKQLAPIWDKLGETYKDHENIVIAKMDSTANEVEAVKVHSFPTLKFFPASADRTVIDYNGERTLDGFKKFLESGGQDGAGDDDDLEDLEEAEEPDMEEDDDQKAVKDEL

AC50: 0.1 µM
SMILES: CCOC(=O)C1(CCOc2ccccc2)CCN(Cc2ccc(O)c(Cl)c2)CC1

— PubChem BioAssay AID652146 (Broad Institute, 2013)
